Results published in US6486381B1, “Genetically engineered mice containing alterations in the genes encoding retinoic acid receptor proteins” (Institut National de la Sante et de la Recherche Medicale, priority 1993, dated 2002).

Key:
Format in all cases: in vivo, mouse
[1] = tested on: wild type and RARβ2 null fetuses; assay: RA-induced limb malformations in wild type and RARβ2 null fetuses; conditions: 80 mg/kg in utero at 11.5 dpc, fetuses at 18.5 dpc
Protocol: For generation of hindbrain malformations timed mating experiments were performed and all-trans RA (Sigma) (25 mg/kg body weight) was administered to the mother by oral gavage at 7.25 dpc. Embryos were collected at 9.0 dpc, yolk sacs were taken for genotyping and embryos were fixed in 4% paraformaldehyde and embedded in paraffin for in situ hybridization on sections. For each embryo, three sets of alternate sections were hybridized to Hoxb-1, Krox-20 and Hoxa-3 probes. These probes have been described previously (Gaunt et al., Development 104 suppl.:71-82 (1988); Wilkinson et al., Nature 337:461-464 (1989); Hunt et al., Nature 353:861-864 (1991)). […] A separate series of embryos was processed for whole-mount in situ hybridization with a digoxigenin-labelled Hoxb-1 riboprobe. Both in situ hybridization procedures were performed as described in Décimo et al. (“In situ Hybridization to Cellular RNA,” in Gene Probes: A Practical Approach, Vol. 2, Hames et al., eds., Oxford University Press, Oxford, England, in press). For induction of limb malformations, all-trans RA was administered at 11.5 dpc (80 mg/kg) and fetuses were collected at 18.5 dpc and analyzed for skeletal malformations. For investigating induction of RARβ2 promoter activity in RARβ2 mutants, 25 mg/kg RA was administered at days 10.5 and 11.5 pc, then embryos were collected and stained for LacZ activity after 4 hours. […]

[2] = tested on: wild type, RARγ+/− and RARγ−/− fetuses; assay: RA-induced skeletal malformations in wild type, RARγ+/− and RARγ−/− offspring
Protocol: For whole mount skeletal analysis, fetuses were collected at day 18.5 p.c. and stored at −20° C. Skeletons were prepared as previously described (Lufkin et al., Nature 359:835-841 (1992)). For histological analysis, fetuses were skinned and then fixed in Bouin's fluid. Paraffin sections, 7 μm thick, were stained with Groat's hematoxylin and Mallory's trichrome. Organs were fixed in 10% formalin, and histological sections, 5 μm thick, were stained with hematoxylin and eosin. RARγ^+/− heterozygote animals were mated overnight and the presence of a vaginal plug at noon the next day considered as day 0.5 p.c. At various times, pregnant females received a single dose of RA dissolved in sunflower seed oil at a final delivery of 100 mg RA per kg animal. […] To determine if any of these malformations could be mediated by RARγ, pregnant dams from heterozygote crosses were treated with RA at day 8.5 or 9.0 p.c., and we examined day 18.5 p.c. fetuses for skeletal malformations. […] Comparison of RA-induced skeletal malformations in wild type, RARγ^+/− and RARγ^−/− offspring. […] Skeletons were prepared, and malformations scored under a dissecting microscope. Where possible, fetuses from the same litter were compared.

RARα1 null homozygotes = assay: RA-induced malformations in RARα1 null homozygotes; conditions: RA at days 8.5-9.0 p.c.
[3] = tested on: wild type and RARβ2 null embryos; assay: RA-induced hindbrain and forebrain alterations in wild type and RARβ2 null embryos (in situ hybridization); conditions: 25 mg/kg at 7.25 dpc
Protocol: For generation of hindbrain malformations timed mating experiments were performed and all-trans RA (Sigma) (25 mg/kg body weight) was administered to the mother by oral gavage at 7.25 dpc. Embryos were collected at 9.0 dpc, yolk sacs were taken for genotyping and embryos were fixed in 4% paraformaldehyde and embedded in paraffin for in situ hybridization on sections. For each embryo, three sets of alternate sections were hybridized to Hoxb-1, Krox-20 and Hoxa-3 probes. These probes have been described previously (Gaunt et al., Development 104 suppl.:71-82 (1988); Wilkinson et al., Nature 337:461-464 (1989); Hunt et al., Nature 353:861-864 (1991)). […] A separate series of embryos was processed for whole-mount in situ hybridization with a digoxigenin-labelled Hoxb-1 riboprobe. Both in situ hybridization procedures were performed as described in Décimo et al. (“In situ Hybridization to Cellular RNA,” in Gene Probes: A Practical Approach, Vol. 2, Hames et al., eds., Oxford University Press, Oxford, England, in press). For induction of limb malformations, all-trans RA was administered at 11.5 dpc (80 mg/kg) and fetuses were collected at 18.5 dpc and analyzed for skeletal malformations. For investigating induction of RARβ2 promoter activity in RARβ2 mutants, 25 mg/kg RA was administered at days 10.5 and 11.5 pc, then embryos were collected and stained for LacZ activity after 4 hours. For whole-mount skeletal analysis, fetuses were collected at 18.5 dpc by ceasarean section and skeletons were prepared as described (Lufkin et al., Nature 359:835-841 (1992)). Histological analysis was as in Lohnes et al. (Cell 73:643-658 (1993)) and lacZ staining as in Mendelsohn et al. (Development 113:723-734 (1991)).
RARβ2+/− intercrosses were set up, and pregnant females were given 25 mg/kg all-trans RA at 7.25 dpc, a dose which is known to produce rhombomeric alterations. […] Hoxb-1 expression was analyzed by whole-mount in situ hybridization.

RARγ2−/− animals = assay: RA-induced skeletal malformations in RARγ2−/− animals; conditions: RARγ2−/− animals versus control littermates, identical conditions
[4] = RA 100 mg/kg single dose to dam at day 8.5 p.c., RARγ +/+ fetuses, day 18.5 p.c.
[5] = RA 100 mg/kg single dose to dam at day 8.5 p.c., RARγ +/− fetuses, day 18.5 p.c.
[6] = RA 100 mg/kg single dose to dam at day 8.5 p.c., RARγ −/− fetuses, day 18.5 p.c.
[7] = RA 100 mg/kg single dose to dam at day 9.0 p.c., +/−, fetuses day 18.5 p.c.
[8] = RA 100 mg/kg single dose to dam at day 9.0 p.c., RARγ +/− fetuses, day 18.5 p.c.
[9] = RA 100 mg/kg single dose to dam at day 9.0 p.c., RARγ −/− fetuses, day 18.5 p.c.

With `CC1=C(/C=C/C(C)=C/C=C/C(C)=C/C(=O)O)C(C)(C)CCC1` [RA, retinoic acid] the “nature or extent of the limb malformations, wild type versus RARβ2 null fetuses” value [1] was “no apparent differences”, the “limb malformations (truncated long bones, missing digits)” value ([1]; wild type and RARβ2 null, compared to untreated) was “severely malformed limbs” and the Caudal truncations [2, 4] was 11 (100%) fetuses (%). For the same compound, the Craniofacial malformations [2, 4] was 11 (100%) fetuses (%), the Degenerate ribs [2, 4] was 10 (91%) fetuses (%) and the “Homeotic transformations: 8 vertebrosternal ribs (T8 → T7)” value (“Homeotic transformations … (T8 → T7)” for short) [2, 4] was 7 (64%) fetuses (%). The “Homeotic transformations: 14 or 15 ribs (L → T)” value [2, 4] was 6 (54%) fetuses (%), the Caudal truncations [2, 5] was 13 (81%) fetuses (%) and the Craniofacial malformations [2, 5] was 16 (100%) fetuses (%). For the same compound, the Degenerate ribs [2, 5] was 6 (38%) fetuses (%), the “Homeotic transformations … (T8 → T7)” value [2, 5] was 8 (50%) fetuses (%) and the “Homeotic transformations: 14 or 15 ribs (L → T)” value [2, 5] was 14 (87%) fetuses (%). For the same compound, the Malformed lumbar/sacral vertebrae [2, 5] was 3 (19%) fetuses (%), the Caudal truncations [2, 6] was 0 (0%) fetuses (%) and the Craniofacial malformations [2, 6] was 10 (100%) fetuses (%). The Degenerate ribs [2, 6] was 0 (0%) fetuses (%), the “Homeotic transformations … (T8 → T7)” value [2, 6] was 6 (50%) fetuses (%) and the “Homeotic transformations: 14 or 15 ribs (L → T)” value [2, 6] was 7 (70%) fetuses (%). The “Homeotic transformations: Number of lumbar vertebrae: 5” value [2, 6] was 1 (10%) fetuses (%), the “Homeotic transformations: Number of lumbar vertebrae: 6” value [2, 6] was 9 (90%) fetuses (%) and the “Homeotic transformations: Number of lumbar vertebrae: 7” value [2, 6] was 0 (0%) fetuses (%). The Malformed lumbar/sacral vertebrae [2, 6] was 0 (0%) fetuses (%), the Caudal truncations [2, 7] was 13 (100%) fetuses (%) and the Craniofacial malformations [2, 7] was 13 (100%) fetuses (%). For the same compound, the Degenerate ribs [2, 7] was 0 (0%) fetuses (%), the “Homeotic transformations … (T8 → T7)” value [2, 7] was 7 (54%) fetuses (%) and the “Homeotic transformations: 14 or 15 ribs (L → T)” value [2, 7] was 7 (54%) fetuses (%). The Caudal truncations [2, 8] was 14 (58%) fetuses (%), the Craniofacial malformations [2, 8] was 24 (100%) fetuses (%) and the Degenerate ribs [2, 8] was 0 (0%) fetuses (%). The “Homeotic transformations … (T8 → T7)” value [2, 8] was 9 (38%) fetuses (%), the “Homeotic transformations: 14 or 15 ribs (L → T)” value [2, 8] was 8 (33%) fetuses (%) and the Malformed lumbar/sacral vertebrae [2, 8] was 10 (42%) fetuses (%). For the same compound, the Caudal truncations [2, 9] was 0 (0%) fetuses (%), the Craniofacial malformations [2, 9] was 18 (100%) fetuses (%) and the Degenerate ribs [2, 9] was 0 (0%) fetuses (%). The “Homeotic transformations … (T8 → T7)” value [2, 9] was 11 (61%) fetuses (%), the “Homeotic transformations: 14 or 15 ribs (L → T)” value [2, 9] was 11 (61%) fetuses (%) and the “Homeotic transformations: Number of lumbar vertebrae: 5” value [2, 9] was 1 (7%) fetuses (%). For the same compound, the “Homeotic transformations: Number of lumbar vertebrae: 6” value [2, 9] was 15 (83%) fetuses (%), the “Homeotic transformations: Number of lumbar vertebrae: 7” value [2, 9] was 3 (16%) fetuses (%) and the Malformed lumbar/sacral vertebrae [2, 9] was 0 (0%) fetuses (%). The “lumbar to thoracic, sacral to lumbar and lumbar to sacral vertebral transformations” value ([2]; RA-treated RARγ null homozygotes) was “also occurred”, the RA-induced truncations ([2]; RARγ heterozygotes, RA at day 8.5 p.c.) was “partially resistant” and the “lumbo-sacral vertebral malformations, including fusion of the neural arches and disorganized vertebral centres” value ([2]; RARγ+/− animals, RA-treated) was “always exhibited lumbo-sacral vertebral malformations”. For the same compound, the “spina bifida, truncation of the axial skeleton in the post-thoracic region, degenerate or fused ribs, disorganized vertebral centres or malformed neural arches” value ([2]; RARγ−/− embryos exposed to RA at day 8.5 p.c.) was “none”, the “truncations and associated defects” value ([2]; RARγ−/− littermates, RA at day 9.0 p.c.) was “never observed” and the “truncations and associated defects” value ([2]; WT embryos, RA at day 9.0 p.c. compared to day 8.5 p.c.) was “progressively more posterior truncations and associated defects”. For the same compound, the “spina bifida, truncation of the axial skeleton in the post-thoracic region, degenerate or fused ribs, disorganized vertebral centres or malformed neural arches” value ([2]; WT fetuses exposed to RA at day 8.5 p.c.) was “All WT fetuses exhibited these malformations”, the “resistance to RA-induced malformations (lumbosacral truncations)” value (RARα1 null homozygotes) was “not observed” and the Hoxa-3 expression pattern ([3]; embryos collected at 9.0 dpc) was “No significant alteration”. For the same compound, the forebrain truncation ([3]; observed at 9.0-9.5 dpc, wild-type and RARβ2 null embryos) was “Severe truncations of the forebrain”, the “Krox-20 transcripts (in situ hybridization)” value ([3]; RA-treated embryos) was “not detected in the putative R3” and the “Hoxb-1 expression (in situ hybridization)” value ([3]; wild type and RARβ2 null mutants) was “rostral expansion of the Hoxb-1 transcript domain”. For the same compound, the “type and frequency of RA-induced malformations” value (RARγ2−/− animals) was “same type and frequency of RA-induced malformations as control littermates”.
